Source: patent publication US12077503B2, “Substituted cyclic amides and their use as herbicides” (FMC CORPORATION, priority 2015, dated 2024)

Experiments:
Assay type in all cases: in vivo
[1] = system: velvetleaf (Abutilon theophrasti); assay: Test G Post-Emergence Protocol; settings: Abutilon theophrasti, post-emergence, 312 h; for pest or weed control at 15.625 g/ha: 15.625 g ai/ha, evaluated after 13 days (100=total damage to plant; 0=no damage to plant), read-out: Velvetleaf damage rating; for pest or weed control at 62.5 g/ha: 62.5 g ai/ha, read-out: Velvetleaf damage rating (100=total damage to plant; 0=no damage to plant); for pest or weed control at 62.5 g/ha / pest or weed control at 250 g/ha: evaluated after 13 days; for pest or weed control at 250 g/ha: 250 g ai/ha, read-out: damage to plant, Velvetleaf (100=total damage to plant; 0=no damage to plant)
Method in brief: (§1)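 Scores run 0 (no damage) to 100 (total damage) and were taken 13 days after spraying. Plants had been raised in pots for 8 days under glasshouse control (24/16 °C, 14 h photoperiod, 65% humidity) and then treated at 15.625, 62.5 or 250 g/ha.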

[2] = system: ivy-leaved morning glory (Ipomoea hederacea); assay: Test G Post-Emergence Protocol; settings: Ipomoea, post-emergence, 312 h; for pest or weed control at 15.625 g/ha: 15.625 g ai/ha, evaluated after 13 days (100=total damage to plant; 0=no damage to plant), read-out: Morningglory, Ivy-leaved damage rating; for pest or weed control at 62.5 g/ha: 62.5 g ai/ha, read-out: Morningglory, Ivy-leaved damage rating (100=total damage to plant; 0=no damage to plant); for pest or weed control at 62.5 g/ha / pest or weed control at 250 g/ha: evaluated after 13 days; for pest or weed control at 250 g/ha: 250 g ai/ha, read-out: damage to plant, Morningglory, Ivy-leaved (100=total damage to plant; 0=no damage to plant)
Method in brief: as §1

[3] = system: barnyardgrass (Echinochloa crus-galli); assay: Test G Post-Emergence Protocol; settings: Echinochloa crus-galli, post-emergence, 312 h; for pest or weed control at 15.625 g/ha: 15.625 g ai/ha, evaluated after 13 days (100=total damage to plant; 0=no damage to plant), read-out: Barnyardgrass damage rating; for pest or weed control at 62.5 g/ha: 62.5 g ai/ha, read-out: Barnyardgrass damage rating (100=total damage to plant; 0=no damage to plant); for pest or weed control at 62.5 g/ha / pest or weed control at 250 g/ha: evaluated after 13 days; for pest or weed control at 250 g/ha: 250 g ai/ha, read-out: damage to plant, Barnyardgrass (100=total damage to plant; 0=no damage to plant)
Method in brief: as §1

[4] = system: giant foxtail (Setaria faberi); assay: Test G Post-Emergence Protocol; settings: Setaria faberi, post-emergence, 312 h; for pest or weed control at 15.625 g/ha: 15.625 g ai/ha, evaluated after 13 days (100=total damage to plant; 0=no damage to plant), read-out: Foxtail, Giant damage rating; for pest or weed control at 62.5 g/ha: 62.5 g ai/ha, read-out: Foxtail, Giant damage rating (100=total damage to plant; 0=no damage to plant); for pest or weed control at 62.5 g/ha / pest or weed control at 250 g/ha: evaluated after 13 days; for pest or weed control at 250 g/ha: 250 g ai/ha, read-out: damage to plant, Foxtail, Giant (100=total damage to plant; 0=no damage to plant)
Method in brief: as §1

[5] = system: redroot pigweed (Amaranthus retroflexus); assay: Test G Post-Emergence Protocol; settings: Amaranthus retroflexus, post-emergence, 312 h; for pest or weed control at 15.625 g/ha: 15.625 g ai/ha, evaluated after 13 days (100=total damage to plant; 0=no damage to plant), read-out: Pigweed, Redroot damage rating; for pest or weed control at 62.5 g/ha: 62.5 g ai/ha, read-out: Pigweed, Redroot damage rating (100=total damage to plant; 0=no damage to plant); for pest or weed control at 62.5 g/ha / pest or weed control at 250 g/ha: evaluated after 13 days; for pest or weed control at 250 g/ha: 250 g ai/ha, read-out: damage to plant, Pigweed, Redroot (100=total damage to plant; 0=no damage to plant)
Method in brief: as §1

corn (Zea mays) [6] = assay: Test G Post-Emergence Protocol; settings: Zea mays, post-emergence, 312 h; for plant injury at 15.625 g/ha: 15.625 g ai/ha, evaluated after 13 days (100=total damage to plant; 0=no damage to plant), read-out: Corn damage rating; for plant injury at 62.5 g/ha: 62.5 g ai/ha, read-out: Corn damage rating (100=total damage to plant; 0=no damage to plant); for plant injury at 62.5 g/ha / plant injury at 250 g/ha: evaluated after 13 days; for plant injury at 250 g/ha: 250 g ai/ha, read-out: damage to plant, Corn (100=total damage to plant; 0=no damage to plant)
Method in brief: as §1

[7] = system: velvetleaf (Abutilon theophrasti); assay: Test G Pre-Emergence Protocol; settings: Abutilon theophrasti, pre-emergence, 312 h, evaluated after 13 days; for pest or weed control at 15.625 g/ha: 15.625 g ai/ha; for pest or weed control at 15.625 g/ha / pest or weed control at 250 g/ha: read-out: Velvetleaf damage rating (100=total damage to plant; 0=no damage to plant); for pest or weed control at 62.5 g/ha: 62.5 g ai/ha, 100=total damage to plant, 0=no damage to plant, read-out: plant damage rating, Velvetleaf; for pest or weed control at 250 g/ha: 250 g ai/ha
Method in brief: (§2)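 Pots of seeds in standard soil were grown for one day in a glasshouse (24/16 °C day/night, 14 h light, 65% humidity), then sprayed with compound in acetone/water 50:50 with 0.5% Tween 20 at 15.625, 62.5 or 250 g/ha. Damage was scored after 13 days on a 0 (none) to 100 (total) scale.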

[8] = system: ivy-leaved morning glory (Ipomoea hederacea); assay: Test G Pre-Emergence Protocol; settings: Ipomoea, pre-emergence, 312 h, evaluated after 13 days; for pest or weed control at 62.5 g/ha: 62.5 g ai/ha, 100=total damage to plant, 0=no damage to plant, read-out: plant damage rating, Morningglory, Ivy-leaved; for pest or weed control at 250 g/ha: 250 g ai/ha, read-out: Morningglory, Ivy-leaved damage rating (100=total damage to plant; 0=no damage to plant)
Method in brief: as §2

[9] = system: barnyardgrass (Echinochloa crus-galli); assay: Test G Pre-Emergence Protocol; settings: Echinochloa crus-galli, pre-emergence, 312 h, evaluated after 13 days; for pest or weed control at 15.625 g/ha: 15.625 g ai/ha, read-out: Barnyard grass damage rating (100=total damage to plant; 0=no damage to plant); for pest or weed control at 62.5 g/ha: 62.5 g ai/ha, 100=total damage to plant, 0=no damage to plant, read-out: plant damage rating, Barnyardgrass; for pest or weed control at 250 g/ha: 250 g ai/ha, read-out: Barnyardgrass damage rating (100=total damage to plant; 0=no damage to plant)
Method in brief: as §2

[10] = system: giant foxtail (Setaria faberi); assay: Test G Pre-Emergence Protocol; settings: Setaria faberi, pre-emergence, 312 h, evaluated after 13 days; for pest or weed control at 15.625 g/ha: 15.625 g ai/ha; for pest or weed control at 15.625 g/ha / pest or weed control at 250 g/ha: read-out: Foxtail, Giant damage rating (100=total damage to plant; 0=no damage to plant); for pest or weed control at 62.5 g/ha: 62.5 g ai/ha, 100=total damage to plant, 0=no damage to plant, read-out: plant damage rating, Foxtail, Giant; for pest or weed control at 250 g/ha: 250 g ai/ha
Method in brief: as §2

[11] = system: redroot pigweed (Amaranthus retroflexus); assay: Test G Pre-Emergence Protocol; settings: Amaranthus retroflexus, pre-emergence, 312 h, evaluated after 13 days; for pest or weed control at 15.625 g/ha: 15.625 g ai/ha; for pest or weed control at 15.625 g/ha / pest or weed control at 250 g/ha: read-out: Pigweed, Redroot damage rating (100=total damage to plant; 0=no damage to plant); for pest or weed control at 62.5 g/ha: 62.5 g ai/ha, 100=total damage to plant, 0=no damage to plant, read-out: plant damage rating, Pigweed, Redroot; for pest or weed control at 250 g/ha: 250 g ai/ha
Method in brief: as §2

corn (Zea mays) [12] = assay: Test G Pre-Emergence Protocol; settings: Zea mays, pre-emergence, 312 h, evaluated after 13 days; for plant injury at 15.625 g/ha: 15.625 g ai/ha; for plant injury at 15.625 g/ha / plant injury at 250 g/ha: read-out: Corn damage rating (100=total damage to plant; 0=no damage to plant); for plant injury at 62.5 g/ha: 62.5 g ai/ha, 100=total damage to plant, 0=no damage to plant, read-out: plant damage rating, Corn; for plant injury at 250 g/ha: 250 g ai/ha
Method in brief: as §2

| Compound | pest or weed control at 15.625 g/ha [1] [%] | pest or weed control at 62.5 g/ha [1] [%] | pest or weed control at 250 g/ha [1] [%] | pest or weed control at 15.625 g/ha [2] [%] | pest or weed control at 62.5 g/ha [2] [%] | pest or weed control at 250 g/ha [2] [%] | pest or weed control at 15.625 g/ha [3] [%] | pest or weed control at 62.5 g/ha [3] [%] | pest or weed control at 250 g/ha [3] [%] | pest or weed control at 15.625 g/ha [4] [%] | pest or weed control at 62.5 g/ha [4] [%] | pest or weed control at 250 g/ha [4] [%] | pest or weed control at 15.625 g/ha [5] [%] | pest or weed control at 62.5 g/ha [5] [%] | pest or weed control at 250 g/ha [5] [%] | plant injury at 15.625 g/ha (corn (Zea mays) [6]) [%] | plant injury at 62.5 g/ha (corn (Zea mays) [6]) [%] | plant injury at 250 g/ha (corn (Zea mays) [6]) [%] | pest or weed control at 15.625 g/ha [7] [%] | pest or weed control at 62.5 g/ha [7] [%] | also measured |
| --- | --- | --- | --- | --- | --- | --- | --- | --- | --- | --- | --- | --- | --- | --- | --- | --- | --- | --- | --- | --- | --- |
| CN1C[C@@H](c2ccc(C(F)(F)F)cc2)[C@H](C(=O)Nc2ccc(F)nc2)C1=O (racemic) [Compound 1555] | 0 | 0 | 10 | 0 | 10 | 50 | 0 | 0 | 40 | 0 | 0 | 50 | 0 | 0 | 20 | 0 | 10 | 0 | 0 | 0 | pest or weed control at 250 g/ha [7]: 0%; pest or weed control at 62.5 g/ha [8]: 0%; pest or weed control at 250 g/ha [8]: 0%; pest or weed control at 15.625 g/ha [9]: 0%; pest or weed control at 62.5 g/ha [9]: 20%; pest or weed control at 250 g/ha [9]: 70%; pest or weed control at 15.625 g/ha [10]: 0%; pest or weed control at 62.5 g/ha [10]: 30%; pest or weed control at 250 g/ha [10]: 70%; pest or weed control at 15.625 g/ha [11]: 40%; pest or weed control at 62.5 g/ha [11]: 30%; pest or weed control at 250 g/ha [11]: 70%; plant injury at 15.625 g/ha (corn (Zea mays) [12]): 0%; plant injury at 62.5 g/ha (corn (Zea mays) [12]): 0%; plant injury at 250 g/ha (corn (Zea mays) [12]): 20% |
| CCc1nnc(NC(=O)[C@@H]2C(=O)N(C)C[C@H]2c2ccc(C(F)(F)F)cc2)s1 (racemic) [Compound 1558] | 0 | 0 | 0 | 0 | 0 | 0 | 0 | 10 | 20 | 0 | 0 | 0 | 0 | 0 | 0 | 0 | 0 | 0 | 0 | 0 | pest or weed control at 250 g/ha [7]: 0%; pest or weed control at 15.625 g/ha ([8]; 15.625 g ai/ha, read-out: Morning-glory, Ivy-leaved damage rating (100=total damage to plant; 0=no damage to plant)): 0%; pest or weed control at 62.5 g/ha [8]: 0%; pest or weed control at 250 g/ha [8]: 0%; pest or weed control at 15.625 g/ha [9]: 0%; pest or weed control at 62.5 g/ha [9]: 0%; pest or weed control at 250 g/ha [9]: 10%; pest or weed control at 15.625 g/ha [10]: 0%; pest or weed control at 62.5 g/ha [10]: 0%; pest or weed control at 250 g/ha [10]: 0%; pest or weed control at 15.625 g/ha [11]: 0%; pest or weed control at 62.5 g/ha [11]: 0%; pest or weed control at 250 g/ha [11]: 10%; plant injury at 15.625 g/ha (corn (Zea mays) [12]): 0%; plant injury at 62.5 g/ha (corn (Zea mays) [12]): 0%; plant injury at 250 g/ha (corn (Zea mays) [12]): 0% |
